# Test results: patent US8703957B2 (Janssen Pharmaceutica NV, priority 2001, dated 2014)
# Key:
# [1] = tested on: inflammatory cell numbers in the broncho-alveolar lavage (BAL) fluid; test: Inflammatory cell counts in broncho-alveolar lavage (BAL) fluid of antigen-challenged sheep; assay type: in vivo
# Protocol: Baseline dose response curves to aerosol carbachol were obtained 1-3 days prior to antigen challenge. Baseline values of specific lung resistance (SRL) were obtained and the sheep were then given a specified amount (mg) of the test compound as an inhaled aerosol at a specified time before antigen challenge. Post drug measurements of SRL were obtained and the sheep were then challenged with Ascaris suum antigen. Measurements of SRL were obtained immediately after challenge, hourly from 1-6 h after challenge and on the half-hour from 6½-8 h after challenge. Measurements of SRL were obtained 24 h after challenge followed by a 24 h post-challenge with carbachol to measure airway hyperreactivity. […] Ascaris suum antigen challenge was given at the zero time point.
# [2] = tested on: inflammatory cell numbers in the broncho-alveolar lavage (BAL) fluid; test: as above; assay type: in vivo; details: 1.0 mg/kg × 4 days, last dose 30 min prior to antigen challenge
# [3] = tested on: Ascaris suum antigen-induced asthmatic response in conscious sheep; test: Ascaris suum antigen-induced asthmatic response in conscious sheep: specific lung resistance and airway hyperreactivity; assay type: in vivo
# Protocol: The efficacy of Compound 2 for the treatment of asthma was evaluated in a validated model of Ascaris suum antigen-induced asthmatic response in conscious sheep (Abraham, W. M., Pharmacology of allergen-induced early and late airway responses and antigen-induced airway hyperresponsiveness in allergic sheep, Pulmonary Pharmacology, 1989, 2, 33-40).
# Baseline dose response curves to aerosol carbachol were obtained 1-3 days prior to antigen challenge. Baseline values of specific lung resistance (SRL) were obtained and the sheep were then given a specified amount (mg) of the test compound as an inhaled aerosol at a specified time before antigen challenge. Post drug measurements of SRL were obtained and the sheep were then challenged with Ascaris suum antigen. Measurements of SRL were obtained immediately after challenge, hourly from 1-6 h after challenge and on the half-hour from 6½-8 h after challenge. Measurements of SRL were obtained 24 h after challenge followed by a 24 h post-challenge with carbachol to measure airway hyperreactivity.
# Compound 2 was administered as an aerosol at 0.1 mg/Kg/dose, twice-a-day (BID) for three consecutive days, followed by a dose on day 4, 0.5 h prior to antigen challenge. Ascaris suum antigen challenge was given at the zero time point.
# human skin chymase = target: T1, human skin chymase (Homo sapiens, UniProt P23946); test: Enzyme-catalyzed hydrolysis assay, chymase (chromogenic substrate Suc-Ala-Ala-Pro-Phe-pNa); assay type: biochemical; details: 10 nM enzyme, 0.7 mM substrate, pH 8.0, 37° C., 30 minutes
# T1 construct: human skin chymase (Cortex Biochem); purchased Cortex Biochem; host or cells: human skin (from the enzyme's name)
# T1 sequence (P23946 22-247): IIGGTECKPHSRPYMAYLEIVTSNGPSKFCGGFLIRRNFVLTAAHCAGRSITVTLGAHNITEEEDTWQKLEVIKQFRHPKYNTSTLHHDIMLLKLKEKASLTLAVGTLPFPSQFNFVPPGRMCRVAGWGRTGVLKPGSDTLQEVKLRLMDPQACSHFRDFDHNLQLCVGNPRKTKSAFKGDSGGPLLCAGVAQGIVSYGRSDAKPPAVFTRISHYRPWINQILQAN
# Protocol: (§1) Enzyme-catalyzed hydrolysis rates were measured spectrophotometrically using human neutrophil cathepsin G (Athens Research and Technology) or human skin chymase (Cortex Biochem), a chromogenic substrate (Suc-Ala-Ala-Pro-Phe-pNa) (Bachem) in aqueous buffer (100 mM Hepes, 500 mM NaCl, pH 7.4 for catG; 450 mM Tris, 1800 mM NaCl, pH 8.0 for chymase), and a microplate reader (Molecular Devices). […] Percent inhibition was calculated by comparing the initial reaction slopes of the samples without inhibitor to those with inhibitor. IC50 values were determined using a four parameter fit logistics model. The term “NT” indicates a compound that was not tested.
# [4] = target: T2, human neutrophil cathepsin G (Homo sapiens, UniProt P08311); test: Enzyme-catalyzed hydrolysis assay, cathepsin G (chromogenic substrate Suc-Ala-Ala-Pro-Phe-pNa); assay type: biochemical; details: 70 nM enzyme, 5 mM substrate, pH 7.4, 37° C., 30 minutes; read-out: IC50 (μM) CatG
# T2 construct: human neutrophil cathepsin G (Athens Research and Technology); purchased Athens Research and Technology; host or cells: human neutrophils (from the enzyme's name)
# T2 sequence (P08311 21-243 limits assumed): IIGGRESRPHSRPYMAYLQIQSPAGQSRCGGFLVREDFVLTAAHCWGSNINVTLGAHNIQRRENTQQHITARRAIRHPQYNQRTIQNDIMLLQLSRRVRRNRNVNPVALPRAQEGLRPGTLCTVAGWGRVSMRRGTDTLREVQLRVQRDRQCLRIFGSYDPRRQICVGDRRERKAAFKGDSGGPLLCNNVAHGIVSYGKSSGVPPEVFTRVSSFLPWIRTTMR
# Protocol: as §1
# [5] = 8 h Post Antigen, 1.0 mg/kg × 4 days, last dose 30 min prior to antigen challenge
# [6] = 24 h Post Antigen, 1.0 mg/kg × 4 days, last dose 30 min prior to antigen challenge
# [7] = Baseline, 1.0 mg/kg × 4 days, last dose 30 min prior to antigen challenge
Compound,IC50 (human skin chymase) [µM],IC50 [4] [µM],other results
"CN(C(=O)c1cc2ccccc2cc1C(=O)C(c1cccc2ccccc12)P(=O)(O)O)C1CCN(C(=O)c2ccc3ccccc3c2)CC1 (stereo not drawn) [Compound 2, [2-[3-[[methyl[1-(2-naphthalenylcarbonyl)-4-piperidinyl]amino]carbonyl]-2-naphthalenyl]-1-(1-naphthalenyl)-2-oxoethyl]-phosphonic acid]",,,"BAL Cell Count Lymphocytes [1, 5]: 4.16 ± 1.10 × 1000/mL; BAL Cell Count Neutrophils [1, 5]: 3.17 ± 0.65 × 1000/mL; BAL Cell Count Lymphocytes [1, 6]: 3.72 ± 0.77 × 1000/mL; BAL Cell Count Macrophages [1, 6]: 75.16 ± 2.71 × 1000/mL; BAL Cell Count Eosinophils [1, 7]: 0.00 × 1000/mL; BAL Cell Count Macrophages [1, 7]: 69.06 ± 1.97 × 1000/mL; BAL Cell Count Neutrophils [1, 7]: 12.66 ± 2.07 × 1000/mL; rise in inflammatory cell numbers in the broncho-alveolar lavage (BAL) fluid ([1]; after antigen challenge, sheep, summary of Table 5): blocked; BAL Cell Count Eosinophils ([2]; 8 h Post Antigen): 0.37 ± 0.32 × 1000/mL; BAL Cell Count Macrophages ([2]; 8 h Post Antigen): 77.85 ± 2.36 × 1000/mL; BAL Cell Count Eosinophils ([2]; 24 h Post Antigen): 0.04 ± 0.03 × 1000/mL; BAL Cell Count Neutrophils ([2]; 24 h Post Antigen): 3.86 ± 0.95 × 1000/mL; BAL Cell Count Lymphocytes ([2]; Baseline): 3.15 ± 0.79 × 1000/mL; early airway response (specific lung resistance, SRL) ([3]; 0-2 h after antigen challenge, aerosol 0.1 mg/Kg/dose BID for three days plus dose on day 4, 0.5 h prior to challenge, n=4 sheep/group, FIG. 1): dramatically reduced; late airway response (specific lung resistance, SRL) ([3]; 6-8 h after antigen challenge, aerosol 0.1 mg/Kg/dose BID for three days plus dose on day 4, 0.5 h prior to challenge, n=4 sheep/group, FIG. 1): completely blocked; delayed airway hyperreactivity measured using carbachol challenge (PC 400) ([3]; 24 h post antigen challenge, FIG. 2): completely blocked"
"O=C(c1cc2ccccc2cc1C(=O)N1CCC(CCc2ccccc2)C1)C(c1cccc2ccccc12)P(=O)(O)O (stereo not drawn) [Compound 25, [1-(1-naphthalenyl)-2-oxo-2-[3-[[3-(2-phenylethyl)-1-pyrrolidinyl]carbonyl]-2-naphthalenyl]ethyl]-phosphonic acid]",0.0097 ± 0.0035,0.156 ± 0.028,
"CN(C(=O)c1cc2ccccc2cc1C(=O)C(c1cccc2ccccc12)P(=O)(O)O)C1CCC(c2ccccc2)CC1 (stereo not drawn) [Compound 1, [2-[3-[[methyl(4-phenylcyclohexyl)amino]carbonyl]-2-naphthalenyl]-1-(1-naphthalenyl)-2-oxoethyl]-phosphonic acid]",0.0053 ± 0.0019,0.083 ± 0.014,
[2-[3-[(cyclopentylmethylamino)carbonyl]-2-naphthalenyl]-1-(1-naphthalenyl)-2-oxoethyl]-phosphonic acid [Compound 21],0.0096 ± 0.0034,0.07 ± 0.02,
"O=C(c1cc2ccccc2cc1C(=O)N1CCC(c2nc3ccccc3s2)CC1)C(c1cccc2ccccc12)P(=O)(O)O (stereo not drawn) [Compound 16, [2-[3-[[4-(2-benzothiazolyl)-1-piperidinyl]carbonyl]-2-naphthalenyl]-1-(1-naphthalenyl)-2-oxoethyl]-phosphonic acid]",0.0085 ± 0.0023,0.19 ± 0.02,
"COP(=O)(O)C(C(=O)c1cc2ccccc2cc1C(=O)N(C)C1CCN(C(=O)c2ccc3ccccc3c2)CC1)c1cccc2ccccc12 (stereo not drawn) [Compound 23, [2[3-[[methyl[1-(2-naphthalenylcarbonyl)-4-piperidinyl]amino]carbonyl]-2-naphthalenyl]-1-(1-naphthalenyl)-2-oxoethyl]-phosphonic acid methyl ester]",0.416,0.67,
"CN(C(=O)c1cc2ccccc2cc1C(=O)C(c1ccccc1)P(=O)(O)O)C1CCN(C(=O)c2ccc3ccccc3c2)CC1 (stereo not drawn) [Compound 11, [2-[3-[[methyl[1-(2-naphthalenylcarbonyl)-4-piperidinyl]amino]carbonyl]-2-naphthalenyl]-2-oxo-1-phenylethyl]-phosphonic acid]",0.032,4.9 ± 2.8,
"CN(C(=O)c1cc2ccccc2cc1C(=O)C(c1cccc2ccccc12)P(=O)(O)O)C1CCN(C(=O)CCc2ccc(C(F)(F)F)cc2)CC1 (stereo not drawn) [Compound 18, [2-[3-[[methyl[1-[1-oxo-3-[4-(trifluoromethyl)phenyl]-propyl]-4-piperidinyl]amino]carbonyl]-2-naphthalenyl]-1-(1-naphthalenyl)-2-oxoethyl]-phosphonic acid]",0.001,0.028 ± 0.006,
"Cc1ccc(/C=C/C(=O)N2CCC(N(C)C(=O)c3cc4ccccc4cc3C(=O)C(c3cccc4ccccc34)P(=O)(O)O)CC2)cc1 (stereo not drawn) [Compound 9, [2-[3-[[methyl[1-[(2E)-3-(4-methylphenyl)-1-oxo-2-propenyl]-4-piperidinyl]amino]carbonyl]-2-naphthalenyl]-1-(1-naphthalenyl)-2-oxoethyl]-phosphonic acid]",0.011 ± 0.003,0.053 ± 0.015,
[2-[3-[[[1-[(6-hydroxy-2-naphthalenyl)carbonyl]-4-piperidinyl]methylamino]carbonyl]-2-naphthalenyl]-1-(1-naphthalenyl)-2-oxoethyl]-phosphonic acid [Compound 24],0.0035 ± 0.0013,0.078 ± 0.015,
"CN(C(=O)c1cc2ccccc2cc1C(=O)C(c1cccc2ccccc12)P(=O)(O)O)C1CCN(C(=O)/C=C/c2ccccc2)CC1 (stereo not drawn) [Compound 6, [2-[3-[[methyl[1-[(2E)-1-oxo-3-phenyl-2-propenyl]-4-piperidinyl]amino]carbonyl]-2-naphthalenyl]-1-(1-naphthalenyl)-2-oxoethyl]-phosphonic acid]",0.0035 ± 0.0015,0.067 ± 0.014,
